Results from patent publication US11333660B2, “Analytical process for predicting the therapeutic effect of BH3 mimetics” (MEDIZINISCHE HOCHSCHULE HANNOVER, priority 2017, dated 2022).

How the values were obtained:
[1] = system: human CD45+ cells (BV173) from spleen of ABT-199/DEX/DAS treated mouse; assay: TMRE FACS on human CD45+ spleen cells from the ABT-199/DEX/DAS treated mouse; type: cell-based; conditions: for TMRE fluorescence / MOMP (FIG. 10): ABT-199/DEX/DAS treated mouse CD45+ cells, 1 μM, 1 h; for TMRE fluorescence relative to 100% at beginning: ABT-199/DEX/DAS treated mouse spleen CD45+ cells, ABT-199 10 μM 1 h, FCCP 5 μM 15 min
Method: (§1) Cells were concurrently immunologically stained with APC-labelled anti-human CD45 antibody, to discriminate human leukemic from murine cells, and with TMRE. Measurement was by FACS, with gating for live human cells.
(§2) One of these BH3 mimetics was added to a separate aliquot of the cells suspended in cell culture medium to a final concentration of 1 μM. Concurrently, the cells were immunologically stained by adding a APC-labelled anti-human CD45 antibody to identify the tumour cells, and by adding TMRE. After 1 h, cells were analysed by FACS, with the gating set according to side scatter and forward scatter to select for live cells, and to select for CD45+ cells showing TMRE fluorescence.

[2] = system: human CD45+ cells (BV173) from spleen of untreated control mouse; assay: TMRE FACS on human CD45+ spleen cells from the control mouse; type: cell-based; conditions: for TMRE fluorescence / MOMP (FIG. 10): control mouse CD45+ cells, 1 μM, 1 h; for TMRE fluorescence relative to 100% at beginning: FCCP 5 μM 15 min
Method: as §1
as §2, with “One of these BH3 mimetics was added to a separate aliquot of the cells suspended in cell culture medium to a final concentration of 1 μM.” left out

[3] = system: CD19+ lymphoma cells in PBMC of a mantle-cell lymphoma patient; assay: TMRE FACS on live CD19+ cells of PBMC from a mantle-cell lymphoma patient; type: cell-based, human; conditions: 3 h; for effect of inducing MOMP (reduced TMRE fluorescence in CD19+ cells): 1 μM, FIG. 7; for % (MeanFL relative to negative control) / MeanFL (mean TMRE fluorescence for the live CD19+ cells): CD19 gate, BH3 mimetics 1000 nM
Method: From a blood sample that was drawn from a patient diagnosed to have mantle-cell lymphoma, PBMC were isolated by density gradient centrifugation and suspended in cell culture medium. No further separation of cells was done but all the PBMC were contained in each aliquot dispensed from the isolated PBMC. […] For measurement, TMRE was added for measuring mitochondrial membrane potential, and for discriminating CD19+ lymphoma cells from normal CD19− cells, anti-CD19 antibody, APC-labelled, was added.
Measurement was by FACS after 3 h incubation under cell culture conditions subsequent to addition of the compounds to the aliquots of the cells.
The FACS results shown in FIG. 7 were taken in one measurement for each aliquot. […] This gating was applied to the measurement of the dye of the anti-CD19 antibody (CD19 APC) as shown in the center column (b, e, h, k, n, q) (R2). The measurement results for the viable lymphoma CD19+ cells in relation to MOMP are shown in the right hand column (c, f, i, l, o, r), with TMRE fluorescence indicating MOMP, i.e. lower TMRE fluorescence indicating increased MOMP.

[4] = system: BCR-ABL negative REH cells; assay: TMRE FACS measurement of MOMP in REH cells; type: cell-based; conditions: ABT-199 10 nM, 3 h
Method: As representatives for isolated PBMC, BM or LN mononuclear cells, the B-ALL cell lines SUP-B15, which expresses BCR-ABL (BCR-ABL-positive), and the BCR-ABL negative REH were used in the analytical process in suspension in cell culture medium RPMI1640. As a positive control for MOMP, FCCP was added to 5 μM to one aliquot, as a negative control an aliquot of the suspended cells was used with addition of the same volume of physiological saline, and ABT-199 was added to 10 nM final concentration. After incubation at 37° C. for 3 h, TMRE was added to a final concentration of 50 nM and the aliquots were incubated for further 15 min at 37° C., in a 5% CO2 atmosphere each time.

[5] = system: B-ALL cell line SUP-B15 (BCR-ABL-positive); assay: TMRE FACS measurement of MOMP in SUP-B15 cells; type: cell-based; conditions: 3 h
Method: As representatives for isolated PBMC, BM or LN mononuclear cells, the B-ALL cell lines SUP-B15, which expresses BCR-ABL (BCR-ABL-positive), and the BCR-ABL negative REH were used in the analytical process in suspension in cell culture medium RPMI1640. […] After incubation at 37° C. for 3 h, TMRE was added to a final concentration of 50 nM and the aliquots were incubated for further 15 min at 37° C., in a 5% CO2 atmosphere each time.
(§3) As a positive control, FCCP was added to one aliquot of the cell suspension to 5 μM final concentration. TMRE fluorescence was measured by FACS after 30 min incubation after addition of TMRE.

[6] = system: in vitro cultivated BV173 cells; assay: TMRE FACS on in vitro cultivated BV173 cells; type: cell-based, human; conditions: in vitro cultured BV173, ABT-199 10 μM 1 h; for TMRE fluorescence relative to 100% at beginning: FCCP 5 μM 15 min
SUP-B15 cells = assay: propidium iodide (PI) staining of SUP-B15 cells; type: cell-based; conditions: 1 μM, 24 h process
Method: as §3
For comparison, apoptosis was measured by propidium iodide (PI) staining, the entire process having a duration of 24 h.

[7] = system: PBMC or BM mononuclear cells from CML patients in chronic phase; assay: TMRE FACS on PBMC or BM cells from CML-CP patients; type: cell-based, human; conditions: ABT-199 1 μM, 3 h, CML-CP samples (n=7)
Method: (§4) PBMC or BM mononuclear cells were isolated by density gradient centrifugation from blood or bone marrow samples originating from patients who were newly diagnosed as ALL (n=12), from blood or bone marrow samples originating from CML patients in chronic phase (CML-CP, n=7), and from blood samples obtained from healthy volunteers (n=6). In accordance with the analytical process, PBMC or BM cells were incubated in cell culture medium with ABT-199 added to 1 μM for 3 h at 37° C. in a 5% CO2 atmosphere for cell culture conditions, followed by addition of TMRE to 50 nM and incubation for another 30 min, then analysed by FACS for fluorescence by TMRE.

PBMC from a CLL patient = assay: TMRE FACS on PBMC from a CLL patient; type: cell-based, human; conditions: 3 h, ABT-199 1 μM, FCCP 5 μM, mock MFI 121
Method: (§5) PBMC were isolated by density gradient centrifugation using Biocoll from the heparinized blood sample of a patient diagnosed to have CLL (ABT-199, Venetoclax, is approved for treatment of CLL with 17p-deletion). As a comparison, PBMC from a healthy donor were isolated. PBMC were suspended in RPMI1640 cell culture medium and transferred as aliquots into separate tubes, to which ABT-199 was added to a final concentration of 1 μM and incubated at 37° C. for 3 h in a 5% CO2 atmosphere. Subsequently, TMRE was added to 50 nM and aliquots were further incubated for 30 min, then analysed by FACS according to the invention. As a negative control (mock), physiological saline was added, as a positive control FCCP to 5 μM (FCCP).

[8] = system: PBMC or BM mononuclear cells from ALL patients; assay: TMRE FACS on PBMC or BM cells from ALL patients; type: cell-based, human; conditions: ABT-199 1 μM, 3 h, ALL samples (n=12)
Method: as §4

[9] = system: PBMC from a healthy donor; assay: TMRE FACS on PBMC from a healthy donor; type: cell-based, human; conditions: 3 h, ABT-199 1 μM, FCCP 5 μM, mock MFI 232
Method: as §5

PBMC from healthy donors = assay: TMRE FACS on PBMC from healthy volunteers; type: cell-based, human; conditions: ABT-199 1 μM, 3 h, healthy donors (n=6)
Method: as §4

PBMC = assay: analytical process: TMRE fluorescence by FACS on PBMC aliquots (FIG. 1b); type: cell-based
Method: In this analysis incubation of PBMC aliquots in cell culture medium with the pharmaceutical compound, negative control or positive control was for 30 min, incubation after subsequent addition of fluorescent dye TMRE was for 10 min, both at 37° C., 5% CO2 atmosphere as cell culture conditions.

[10] = system: blood cells obtained from a CLL patient; conditions: 6 h after contact in vitro; cited from earlier work
[11] = CD19+ cells, BH3 mimetics 1 μM, FCCP 5 μM, in comparison to the negative control
[12] = control mouse spleen CD45+ cells, ABT-199 10 μM 1 h

| Structure (SMILES) | TMRE fluorescence / MOMP (FIG. 10) [1] | TMRE fluorescence / MOMP (FIG. 10) [2] | effect of inducing MOMP (reduced TMRE fluorescence in CD19+ cells) [3] | mean TMRE fluorescence relative to negative control [3, 11] [%] | % (MeanFL relative to negative control) ([3]; FCCP 5 μM) [%] | MeanFL (mean TMRE fluorescence for the live CD19+ cells) ([3]; FCCP 5 μM) | TMRE fluorescence relative to 100% at beginning [6] | MFI (TMRE) (PBMC from a CLL patient) | TMRE fluorescence relative to 100% at beginning [1] | MFI (TMRE) [9] | TMRE fluorescence relative to 100% at beginning [2, 12] | further results |
| --- | --- | --- | --- | --- | --- | --- | --- | --- | --- | --- | --- | --- |
| Cc1c(-c2ccc(N3CCc4cccc(C(=O)Nc5nc6ccccc6s5)c4C3)nc2C(=O)O)cnn1CC12CC3CC(CC(C3)C1)C2 [A1331852] | strongly reduced TMRE fluorescence | strongly reduced TMRE fluorescence | less pronounced effect | 29.1 | 29.1 | 203 | – | – | – | – | – | – |
| CC1(C)CCC(CN2CCN(c3ccc(C(=O)NS(=O)(=O)c4ccc(NCC5CCOCC5)c([N+](=O)[O-])c4)c(Oc4cnc5[nH]ccc5c4)c3)CC2)=C(c2ccc(Cl)cc2)C1 [ABT-199] | – | – | effective in inducing MOMP | 9.3 | 9.3 | 65 | approx. 60% | 53 | no response | 242 | approx. 60% | MFI (TMRE) in comparison to the negative control [4]: essentially remains unaffected; induction of apoptosis by the process of the invention (TMRE) ([5]; 1 μM): significant induction of apoptosis; reduction of MFI (TMRE) ([5]; ABT-199 10 nM, versus negative control): approx. 40%; proportion of cells with MOMP [6]: 40%; induction of apoptosis by PI staining (SUP-B15 cells): significant induction of apoptosis; induction of apoptosis (TMRE FACS) [7]: essentially no induction of apoptosis; induction of apoptosis (TMRE FACS) [8]: strong induction of apoptosis; proportion of cells with MOMP [2, 12]: 40%; induction of apoptosis (TMRE FACS) (PBMC from healthy donors): essentially no induction of apoptosis; FACS peak distribution of TMRE fluorescence (PBMC; ABT-199 5 μM to 10 μM, 30 min incubation): the peak at the position of the positive control increasing with the concentration |
| CN(C)CC[C@H](CSc1ccccc1)Nc1ccc(S(=O)(=O)NC(=O)c2ccc(N3CCN(Cc4ccccc4-c4ccc(Cl)cc4)CC3)cc2)cc1[N+](=O)[O-] [ABT-737] | reduced TMRE fluorescence | reduced TMRE fluorescence | effective in inducing MOMP | 9.9 | 9.9 | 69 | – | – | – | – | – | – |
| N#CC(C#N)=NNc1ccc(OC(F)(F)F)cc1 [FCCP, carbonyl cyanide-4-(trifluoro-methoxy)phenylhydrazone] | – | – | – | 15.6 | 15.6 | 109 | ~20% | 60 | ~20% | 106 | ~20% | mean fluorescence intensity (MFI) of TMRE (PBMC; incubation 30 min, TMRE 10 min, 37° C., negative control MFI 612): 95 |
| CN1CC[C@H](c2c(O)cc(O)c3c(=O)cc(-c4ccccc4Cl)oc23)[C@H](O)C1 [Flavopiridol] | – | – | – | – | – | – | – | – | – | – | – | mitochondrial membrane depolarization (JC-1) [10]: mitochondrial membrane depolarization was detected |
| Cc1c(-c2c(-c3ccc(F)o3)sc3ncnc(O[C@H](Cc4ccccc4OCc4ccnn4CC(F)(F)F)C(=O)O)c23)ccc(OCCN2CCN(C)CC2)c1Cl [S63845] | high TMRE fluorescence | high TMRE fluorescence | less pronounced effect | – | 56.7 | 396 | – | – | – | – | – | proportion of cells without MOMP [3, 11]: 56.7% |
